Experiments:
Experiment in all cases: KinomeScan profiling
Assay type in all cases: binding
SLK = target: T1, SLK (Homo sapiens, UniProt Q9H2G2); conditions: read-out: % control
T1 construct: purchased KinomeScan® (panel service)
Summary of the method: (§1)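 At 1 μM in DMSO, compounds are run through a broad 468-member kinase panel. The luminescent read-out is normalised so that vehicle gives 100% and a positive control gives 0%; any kinase falling below 35% is treated as a target.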

RET(V804M) = RET(V804M) (Homo sapiens, UniProt P07949, V804M); conditions: read-out: % control
Summary of the method: as §1

STK35 = target: T2, STK35 (Homo sapiens, UniProt Q8TDR2); conditions: STK35, 1 μM; read-out: % control
T2 construct: purchased KinomeScan® (panel service)
Summary of the method: as §1

PIP5K2C = target: T3, PIP5K2C (Homo sapiens, UniProt Q8TBX8); conditions: read-out: % control
T3 construct: purchased KinomeScan® (panel service)
T3 sequence (Q8TBX8 1-421): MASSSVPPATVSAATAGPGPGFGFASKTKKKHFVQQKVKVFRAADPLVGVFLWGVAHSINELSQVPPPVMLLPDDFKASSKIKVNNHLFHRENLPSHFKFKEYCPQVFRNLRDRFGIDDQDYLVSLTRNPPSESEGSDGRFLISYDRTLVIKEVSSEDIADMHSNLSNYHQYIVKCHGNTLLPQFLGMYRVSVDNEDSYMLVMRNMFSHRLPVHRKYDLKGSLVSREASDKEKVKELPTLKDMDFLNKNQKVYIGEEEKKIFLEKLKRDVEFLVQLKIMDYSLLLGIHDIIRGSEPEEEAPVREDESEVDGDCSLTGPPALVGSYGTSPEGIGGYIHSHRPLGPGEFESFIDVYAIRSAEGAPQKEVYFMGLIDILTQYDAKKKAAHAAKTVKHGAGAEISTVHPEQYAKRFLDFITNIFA
Summary of the method: as §1

AURKB = target: T4, AURKB (Homo sapiens, UniProt Q96GD4); conditions: read-out: % control
T4 construct: purchased KinomeScan®
Summary of the method: as §1

SRC = target: T5, SRC (Homo sapiens, UniProt P12931); conditions: read-out: % control
T5 construct: purchased KinomeScan® (panel service)
Summary of the method: as §1

PFPK5(P. falciparum) = PFPK5(P. falciparum) (Plasmodium falciparum, UniProt P61075); conditions: read-out: % control
Summary of the method: as §1

TNIK = TNIK (Homo sapiens, UniProt Q9UKE5); conditions: read-out: % control
Summary of the method: as §1

[1] = target: T6, JAK1(JH1domain-catalytic) (Homo sapiens, UniProt P23458); conditions: read-out: % control
T6 construct: JAK1(JH1domain-catalytic); purchased KinomeScan®
Summary of the method: as §1

EGFR(G719C) = EGFR(G719C) (Homo sapiens, UniProt P00533, G719C); conditions: read-out: % control
Summary of the method: as §1

SNARK = target: T7, SNARK (Homo sapiens, UniProt Q9H093); conditions: read-out: % control
T7 construct: purchased KinomeScan® (panel service)
T7 sequence (Q9H093 1-628): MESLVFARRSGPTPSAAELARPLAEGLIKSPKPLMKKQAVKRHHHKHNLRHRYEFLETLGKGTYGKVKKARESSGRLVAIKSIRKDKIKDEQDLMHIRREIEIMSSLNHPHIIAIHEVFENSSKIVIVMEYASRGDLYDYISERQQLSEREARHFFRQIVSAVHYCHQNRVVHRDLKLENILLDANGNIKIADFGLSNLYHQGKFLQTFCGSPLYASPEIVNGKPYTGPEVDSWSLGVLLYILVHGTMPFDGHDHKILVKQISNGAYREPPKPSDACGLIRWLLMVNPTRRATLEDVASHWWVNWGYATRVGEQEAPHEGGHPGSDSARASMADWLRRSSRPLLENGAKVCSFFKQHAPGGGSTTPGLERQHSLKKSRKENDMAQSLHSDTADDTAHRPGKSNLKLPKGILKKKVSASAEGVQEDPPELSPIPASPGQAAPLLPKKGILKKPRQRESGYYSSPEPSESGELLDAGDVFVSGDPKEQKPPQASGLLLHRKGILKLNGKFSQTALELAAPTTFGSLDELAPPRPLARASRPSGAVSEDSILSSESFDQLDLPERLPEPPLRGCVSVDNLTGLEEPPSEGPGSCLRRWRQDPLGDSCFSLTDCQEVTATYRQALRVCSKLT
Summary of the method: as §1

PRKD3 = target: T8, PRKD3 (Homo sapiens, UniProt O94806); conditions: PRKD3, 1 μM; read-out: % control
T8 sequence (O94806 1-890): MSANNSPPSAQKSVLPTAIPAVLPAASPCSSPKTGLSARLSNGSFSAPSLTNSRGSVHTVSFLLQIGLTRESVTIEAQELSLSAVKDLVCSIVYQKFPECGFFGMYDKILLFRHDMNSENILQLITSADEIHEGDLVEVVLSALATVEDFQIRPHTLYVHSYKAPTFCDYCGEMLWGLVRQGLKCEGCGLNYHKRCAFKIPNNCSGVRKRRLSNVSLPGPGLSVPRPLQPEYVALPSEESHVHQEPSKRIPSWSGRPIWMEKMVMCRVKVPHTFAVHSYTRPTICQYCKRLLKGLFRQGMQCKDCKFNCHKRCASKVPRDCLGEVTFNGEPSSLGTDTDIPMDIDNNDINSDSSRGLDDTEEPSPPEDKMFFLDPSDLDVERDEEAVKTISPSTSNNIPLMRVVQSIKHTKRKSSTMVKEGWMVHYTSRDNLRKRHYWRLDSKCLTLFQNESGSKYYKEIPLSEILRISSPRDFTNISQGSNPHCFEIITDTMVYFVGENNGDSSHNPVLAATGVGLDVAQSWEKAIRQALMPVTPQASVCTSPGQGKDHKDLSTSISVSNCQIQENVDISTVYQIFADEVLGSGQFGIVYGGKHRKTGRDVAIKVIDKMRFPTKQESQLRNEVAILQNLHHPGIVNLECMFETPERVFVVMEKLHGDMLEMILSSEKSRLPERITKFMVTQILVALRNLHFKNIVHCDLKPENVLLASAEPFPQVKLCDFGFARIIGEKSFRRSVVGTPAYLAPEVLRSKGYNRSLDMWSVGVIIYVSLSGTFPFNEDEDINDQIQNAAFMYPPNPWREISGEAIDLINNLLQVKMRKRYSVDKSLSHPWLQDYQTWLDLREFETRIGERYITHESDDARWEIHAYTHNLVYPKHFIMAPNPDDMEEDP
Summary of the method: as §1

PKAC-beta = target: T9, PKAC-beta (Homo sapiens, UniProt P22694); conditions: read-out: % control
T9 construct: purchased KinomeScan® (panel service)
Summary of the method: as §1

Sequence of EGFR(G719C) (P00533 25-1210 G719C): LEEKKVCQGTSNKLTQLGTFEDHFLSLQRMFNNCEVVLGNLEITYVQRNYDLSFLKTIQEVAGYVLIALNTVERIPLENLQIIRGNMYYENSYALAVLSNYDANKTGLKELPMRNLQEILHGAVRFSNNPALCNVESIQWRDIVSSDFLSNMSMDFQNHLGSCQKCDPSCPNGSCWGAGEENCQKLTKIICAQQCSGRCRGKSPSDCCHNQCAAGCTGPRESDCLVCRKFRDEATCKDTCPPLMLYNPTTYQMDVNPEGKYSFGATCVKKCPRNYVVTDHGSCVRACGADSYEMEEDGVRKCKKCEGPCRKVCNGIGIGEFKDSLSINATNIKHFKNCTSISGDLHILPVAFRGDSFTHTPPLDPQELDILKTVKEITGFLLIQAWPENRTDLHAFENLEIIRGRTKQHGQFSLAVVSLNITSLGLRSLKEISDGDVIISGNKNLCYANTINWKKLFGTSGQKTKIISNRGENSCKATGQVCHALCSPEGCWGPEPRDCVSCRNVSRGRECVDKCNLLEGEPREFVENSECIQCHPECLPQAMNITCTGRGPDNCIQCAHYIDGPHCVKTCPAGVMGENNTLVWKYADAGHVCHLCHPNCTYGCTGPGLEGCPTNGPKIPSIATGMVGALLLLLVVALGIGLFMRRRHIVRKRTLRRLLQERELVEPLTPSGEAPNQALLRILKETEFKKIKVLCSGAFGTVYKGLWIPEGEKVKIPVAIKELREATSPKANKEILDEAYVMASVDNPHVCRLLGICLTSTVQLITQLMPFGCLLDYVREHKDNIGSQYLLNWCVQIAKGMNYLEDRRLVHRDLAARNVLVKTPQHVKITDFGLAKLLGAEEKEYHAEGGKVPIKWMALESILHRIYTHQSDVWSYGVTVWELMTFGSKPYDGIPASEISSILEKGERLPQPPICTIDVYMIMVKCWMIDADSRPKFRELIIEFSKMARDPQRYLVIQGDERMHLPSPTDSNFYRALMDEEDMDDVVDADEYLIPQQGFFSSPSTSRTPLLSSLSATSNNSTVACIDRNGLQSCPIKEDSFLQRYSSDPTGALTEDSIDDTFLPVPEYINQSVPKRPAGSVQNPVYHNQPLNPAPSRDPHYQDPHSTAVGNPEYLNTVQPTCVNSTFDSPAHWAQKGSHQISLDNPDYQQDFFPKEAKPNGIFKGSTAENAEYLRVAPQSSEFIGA
Sequence of PFPK5(P. falciparum) (P61075 whole entry): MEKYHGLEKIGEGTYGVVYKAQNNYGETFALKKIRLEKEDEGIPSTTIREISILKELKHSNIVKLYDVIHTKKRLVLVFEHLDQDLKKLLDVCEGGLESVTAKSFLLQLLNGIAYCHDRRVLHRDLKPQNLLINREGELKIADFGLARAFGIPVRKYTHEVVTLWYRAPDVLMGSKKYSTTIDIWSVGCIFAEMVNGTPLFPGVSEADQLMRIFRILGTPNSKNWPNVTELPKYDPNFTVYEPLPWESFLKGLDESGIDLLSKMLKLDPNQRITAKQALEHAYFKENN
T6 sequence (P23458 875-1153 limits assumed): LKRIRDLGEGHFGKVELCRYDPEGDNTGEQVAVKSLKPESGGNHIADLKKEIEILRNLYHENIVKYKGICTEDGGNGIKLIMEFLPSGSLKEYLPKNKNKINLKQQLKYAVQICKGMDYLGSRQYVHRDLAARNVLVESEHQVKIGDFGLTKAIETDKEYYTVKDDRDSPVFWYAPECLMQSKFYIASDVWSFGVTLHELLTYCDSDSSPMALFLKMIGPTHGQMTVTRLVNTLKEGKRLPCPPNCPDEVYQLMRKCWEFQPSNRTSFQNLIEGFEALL
T4 sequence (Q96GD4 whole entry): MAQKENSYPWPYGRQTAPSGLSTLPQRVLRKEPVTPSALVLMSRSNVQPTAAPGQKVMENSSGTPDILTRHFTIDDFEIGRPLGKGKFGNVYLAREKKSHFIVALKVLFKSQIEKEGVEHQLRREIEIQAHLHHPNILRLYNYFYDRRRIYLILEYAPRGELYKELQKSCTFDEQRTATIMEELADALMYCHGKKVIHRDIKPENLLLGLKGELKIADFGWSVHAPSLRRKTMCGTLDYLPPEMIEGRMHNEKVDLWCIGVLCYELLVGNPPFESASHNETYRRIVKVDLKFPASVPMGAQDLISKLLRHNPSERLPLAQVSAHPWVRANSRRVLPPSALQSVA
Sequence of RET(V804M) (P07949 29-1114 V804M): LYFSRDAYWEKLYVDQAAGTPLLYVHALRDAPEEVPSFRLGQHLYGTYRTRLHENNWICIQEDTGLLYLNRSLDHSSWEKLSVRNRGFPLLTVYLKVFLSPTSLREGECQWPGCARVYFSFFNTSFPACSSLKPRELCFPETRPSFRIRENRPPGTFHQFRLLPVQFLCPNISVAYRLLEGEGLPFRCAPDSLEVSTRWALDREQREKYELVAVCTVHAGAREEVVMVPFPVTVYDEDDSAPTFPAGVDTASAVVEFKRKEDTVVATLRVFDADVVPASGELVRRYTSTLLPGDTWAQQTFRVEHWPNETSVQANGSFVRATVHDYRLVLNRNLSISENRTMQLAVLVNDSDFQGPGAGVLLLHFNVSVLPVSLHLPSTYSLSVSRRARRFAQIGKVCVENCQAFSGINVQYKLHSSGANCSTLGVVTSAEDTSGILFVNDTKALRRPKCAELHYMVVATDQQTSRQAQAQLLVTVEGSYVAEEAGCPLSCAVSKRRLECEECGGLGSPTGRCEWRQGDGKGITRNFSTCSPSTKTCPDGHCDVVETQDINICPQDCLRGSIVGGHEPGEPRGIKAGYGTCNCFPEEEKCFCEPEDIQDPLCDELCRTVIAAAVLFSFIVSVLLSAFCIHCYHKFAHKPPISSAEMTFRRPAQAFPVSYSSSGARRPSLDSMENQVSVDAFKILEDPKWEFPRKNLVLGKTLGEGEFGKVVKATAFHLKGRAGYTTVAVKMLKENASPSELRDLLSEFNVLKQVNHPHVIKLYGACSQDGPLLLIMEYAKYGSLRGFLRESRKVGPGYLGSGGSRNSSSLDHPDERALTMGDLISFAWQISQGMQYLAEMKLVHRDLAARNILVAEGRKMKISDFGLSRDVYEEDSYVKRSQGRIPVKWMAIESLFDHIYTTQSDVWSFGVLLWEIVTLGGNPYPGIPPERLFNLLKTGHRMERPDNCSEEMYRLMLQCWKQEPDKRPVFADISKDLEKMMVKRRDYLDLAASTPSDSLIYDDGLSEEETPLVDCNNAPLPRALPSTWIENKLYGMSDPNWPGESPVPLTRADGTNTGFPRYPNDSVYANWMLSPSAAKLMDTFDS
Sequence of TNIK (Q9UKE5 whole entry): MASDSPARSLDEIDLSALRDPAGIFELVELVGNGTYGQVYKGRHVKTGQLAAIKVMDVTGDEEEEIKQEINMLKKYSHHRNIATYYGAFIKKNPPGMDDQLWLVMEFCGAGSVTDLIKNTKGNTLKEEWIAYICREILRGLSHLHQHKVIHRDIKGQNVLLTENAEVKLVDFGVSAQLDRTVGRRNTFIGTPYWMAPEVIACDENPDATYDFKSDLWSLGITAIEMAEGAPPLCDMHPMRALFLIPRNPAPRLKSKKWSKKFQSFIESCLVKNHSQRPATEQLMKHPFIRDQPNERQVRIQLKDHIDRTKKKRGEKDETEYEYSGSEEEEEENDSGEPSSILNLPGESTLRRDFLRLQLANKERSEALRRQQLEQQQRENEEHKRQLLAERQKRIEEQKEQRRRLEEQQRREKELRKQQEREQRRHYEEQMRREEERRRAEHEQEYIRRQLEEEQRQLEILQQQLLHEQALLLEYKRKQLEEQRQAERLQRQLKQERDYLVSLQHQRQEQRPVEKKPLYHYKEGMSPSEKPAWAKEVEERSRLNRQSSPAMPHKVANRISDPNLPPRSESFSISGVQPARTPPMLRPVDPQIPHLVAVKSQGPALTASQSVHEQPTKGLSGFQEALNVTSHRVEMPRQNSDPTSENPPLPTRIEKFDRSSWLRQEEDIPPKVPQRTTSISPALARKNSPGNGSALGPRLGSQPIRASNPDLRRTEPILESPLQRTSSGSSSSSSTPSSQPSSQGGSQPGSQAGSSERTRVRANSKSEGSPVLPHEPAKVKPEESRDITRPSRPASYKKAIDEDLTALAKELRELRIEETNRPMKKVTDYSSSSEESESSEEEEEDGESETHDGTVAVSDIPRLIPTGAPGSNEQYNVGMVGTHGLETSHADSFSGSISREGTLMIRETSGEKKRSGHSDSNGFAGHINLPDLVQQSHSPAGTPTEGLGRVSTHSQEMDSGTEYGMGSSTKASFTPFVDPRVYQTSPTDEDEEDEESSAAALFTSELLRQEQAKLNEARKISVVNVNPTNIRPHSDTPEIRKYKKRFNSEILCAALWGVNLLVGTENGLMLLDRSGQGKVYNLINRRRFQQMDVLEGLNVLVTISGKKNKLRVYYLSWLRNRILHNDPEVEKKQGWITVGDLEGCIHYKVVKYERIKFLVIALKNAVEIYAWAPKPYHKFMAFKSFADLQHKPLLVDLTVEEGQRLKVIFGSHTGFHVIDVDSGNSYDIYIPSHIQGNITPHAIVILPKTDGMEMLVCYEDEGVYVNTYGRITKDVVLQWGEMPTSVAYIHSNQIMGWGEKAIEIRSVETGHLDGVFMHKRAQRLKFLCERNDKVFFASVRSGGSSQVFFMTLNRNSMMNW
T2 sequence (Q8TDR2 whole entry): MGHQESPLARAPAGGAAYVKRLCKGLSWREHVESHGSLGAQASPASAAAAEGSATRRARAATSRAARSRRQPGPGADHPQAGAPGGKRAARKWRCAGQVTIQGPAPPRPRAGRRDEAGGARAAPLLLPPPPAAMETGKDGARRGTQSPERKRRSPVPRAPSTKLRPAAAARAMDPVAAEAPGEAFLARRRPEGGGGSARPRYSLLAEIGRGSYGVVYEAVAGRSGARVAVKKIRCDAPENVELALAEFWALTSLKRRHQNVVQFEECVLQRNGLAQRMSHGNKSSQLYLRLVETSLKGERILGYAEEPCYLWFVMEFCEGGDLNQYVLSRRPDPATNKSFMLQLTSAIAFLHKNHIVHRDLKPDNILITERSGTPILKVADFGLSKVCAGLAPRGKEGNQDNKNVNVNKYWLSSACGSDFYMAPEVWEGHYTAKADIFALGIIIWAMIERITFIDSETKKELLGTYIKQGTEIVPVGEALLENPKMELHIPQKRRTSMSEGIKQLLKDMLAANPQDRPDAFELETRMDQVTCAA

`CNc1c(-c2cnn([C@H]3CCN(C(C)=O)C[C@@H]3F)c2)cnc2[nH]cc(Cl)c12` [Compound 77, 1-((3S,4S)-4-(4-(3-chloro-4-(methylamino)-1H-pyrrolo[2,3-b]pyridin-5-yl)-1H-pyrazol-1-yl)-3-fluoropiperidin-1-yl)ethan-1-one] showed a remaining binding at 1 µM (SLK) of 86%, a remaining binding at 1 µM (RET(V804M)) of 52% and a remaining binding at 1 µM (STK35) of 63%. It also gave a remaining binding at 1 µM (PIP5K2C) of 93%, a remaining binding at 1 µM (AURKB) of 24% and a remaining binding at 1 µM (SRC) of 99%. It also gave a remaining binding at 1 µM (PFPK5(P. falciparum)) of 100%, a remaining binding at 1 µM (TNIK) of 29% and a remaining binding at 1 µM [1] of 98%. For the same compound, the remaining binding at 1 µM (EGFR(G719C)) was 91%, the remaining binding at 1 µM (SNARK) was 96% and the remaining binding at 1 µM (PRKD3) was 56%. It also gave a remaining binding at 1 µM (PKAC-beta) of 100%.

In the case of `CNc1c(-c2ccc(C(=O)N3CCC(N4CCOCC4)CC3)cc2)cnc2[nH]cc(Cl)c12` [Compound 96, (4-(3-chloro-4-(methylamino)-1H-pyrrolo[2,3-b]pyridin-5-yl)phenyl)(4-morpholinopiperidin-1-yl)methanone], the remaining binding at 1 µM (SLK) is reported as 68%, the remaining binding at 1 µM (RET(V804M)) is reported as 61% and the remaining binding at 1 µM (STK35) is reported as 50%. The remaining binding at 1 µM (PIP5K2C) was 63%, the remaining binding at 1 µM (AURKB) was 53% and the remaining binding at 1 µM (SRC) was 100%. The remaining binding at 1 µM (PFPK5(P. falciparum)) was 100%, the remaining binding at 1 µM (TNIK) was 14% and the remaining binding at 1 µM [1] was 100%. The remaining binding at 1 µM (EGFR(G719C)) was 100%, the remaining binding at 1 µM (SNARK) was 64% and the remaining binding at 1 µM (PRKD3) was 13%. The remaining binding at 1 µM (PKAC-beta) was 100%.

Work on `O=C(c1ccc(-c2cnc3[nH]cc(Cl)c3c2NC2CCCC2)cc1)N1CCC(N2CCOCC2)CC1` [Compound 101, (4-(3-chloro-4-(cyclopentylamino)-1H-pyrrolo[2,3-b]pyridin-5-yl)phenyl)(4-morpholinopiperidin-1-yl)methanone] yielded a remaining binding at 1 µM (SLK) of 78%, a remaining binding at 1 µM (RET(V804M)) of 99% and a remaining binding at 1 µM (STK35) of 99%. For the same compound, the remaining binding at 1 µM (PIP5K2C) was 77%, the remaining binding at 1 µM (AURKB) was 100% and the remaining binding at 1 µM (SRC) was 100%. For the same compound, the remaining binding at 1 µM (PFPK5(P. falciparum)) was 100%, the remaining binding at 1 µM (TNIK) was 89% and the remaining binding at 1 µM [1] was 90%. For the same compound, the remaining binding at 1 µM (EGFR(G719C)) was 91%, the remaining binding at 1 µM (SNARK) was 33% and the remaining binding at 1 µM (PRKD3) was 35%. It also gave a remaining binding at 1 µM (PKAC-beta) of 90%.

— patent US12275731B2, “Azaindole inhibitors of wild-type and mutant forms of LRRK2” (DANA-FARBER CANCER INSTITUTE, INC., priority 2018, dated 2025)
